Laboratory results published in PubChem BioAssay AID1259321 (Sanford-Burnham Center for Chemical Genomics, 2017).
Calls of active or inactive are those of the source.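 The calls were made as follows: active = half-maximal concentration for changing protein binding to DNA, from the fitted dose curve, below 10 micromolar; inactive = the rest.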

Each compound was assayed against Nuclear receptor subfamily 1 group D member 1 (Homo sapiens) (UniProt P20393) (assay: Rev-erbα–DNA interaction modulators – biochemical, FITC-DNA, fluorescence polarization, dose response (AID 1259321)). Settings: Rev-erb alpha-FITC-DNA binding.
Nuclear receptor subfamily 1 group D member 1 (Homo sapiens), sequence (P20393 whole entry, looked up): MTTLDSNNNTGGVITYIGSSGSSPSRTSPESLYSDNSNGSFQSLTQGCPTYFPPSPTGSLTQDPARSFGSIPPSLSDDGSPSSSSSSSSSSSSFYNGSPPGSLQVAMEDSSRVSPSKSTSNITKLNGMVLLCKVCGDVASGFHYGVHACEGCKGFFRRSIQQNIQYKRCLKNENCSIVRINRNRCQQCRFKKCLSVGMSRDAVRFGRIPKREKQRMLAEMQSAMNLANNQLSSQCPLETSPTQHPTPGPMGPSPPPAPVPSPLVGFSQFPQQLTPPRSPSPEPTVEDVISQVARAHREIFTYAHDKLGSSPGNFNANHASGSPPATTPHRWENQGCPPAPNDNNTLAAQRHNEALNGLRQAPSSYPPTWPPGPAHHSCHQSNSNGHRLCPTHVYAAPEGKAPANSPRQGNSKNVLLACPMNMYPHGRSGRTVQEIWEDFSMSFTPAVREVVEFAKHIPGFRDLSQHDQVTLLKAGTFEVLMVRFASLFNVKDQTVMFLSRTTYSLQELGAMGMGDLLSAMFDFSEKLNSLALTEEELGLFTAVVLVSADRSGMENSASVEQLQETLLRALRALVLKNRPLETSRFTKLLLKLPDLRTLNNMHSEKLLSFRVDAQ

Row | SMILES | IC50
1 | COc1ccc(-c2cc(-c3cccnc3)c(C#N)c(N)n2)cc1 | 4.4 µM
2 | CCN(CC)c1ccc(/C=C/c2cccc[n+]2C)c(OC)c1 | 7.32 µM
3 | COc1ccc(OC)c(Nc2nc(-c3ccccc3O)nc3ccccc23)c1 | 9.61 µM
4 | C/C(N)=C(/C#N)C(=O)CSc1nc2ccccc2c(=O)n1-c1ccc(C)c(Cl)c1 | > 40 µM (inactive)
5 | CC(C)CCSc1nc(N)c(C#N)cc1C#N | 2.17 µM
6 | Fc1cccc2sc(Nc3nc4ccccc4s3)nc12 | > 40 µM (inactive)
7 | CCCCn1c(SC(C)C(=O)NCC2CCCO2)nc2cc(C(=O)OC)ccc2c1=O (stereo not drawn) | > 40 µM (inactive)
8 | CCN(CC)c1ccc(/C=C(\C#N)C(=O)c2ccc(Br)cc2)cc1 | inactive
9 | COc1ccccc1Oc1ccc2c(c1)C(=O)N(c1ccccc1)C2=O | 2.24 µM
10 | CCCCCOc1ccc(NC(=O)CSc2cccc3cccnc23)cc1 | 0.678 µM
11 | COc1ccc(Br)cc1-c1nc2c(c(=O)[nH]c(=O)n2Cc2ccccc2)n1C | inactive
12 | N#Cc1cnc2cc(-c3ccccc3)nn2c1N | 3.52 µM
13 | N#CCNC(=O)c1nn2c(C(F)(F)F)cc(-c3ccccc3)nc2c1Br | 3.58 µM
14 | Cc1nc(NCCc2ccc(Cl)cc2)c2nnn(Cc3ccccc3)c2n1 | 1.91 µM
15 | Cc1ccc(CNc2nc3ccccc3n3nnnc23)cc1 | inactive
16 | CN1C(=O)N(C)c2ccc(Br)c3cccc1c23 | > 40 µM (inactive)
17 | COc1ccc2nc(SCC(=O)Nc3ccc4sc(C)nc4c3)c(C#N)cc2c1 | 1.98 µM
18 | COc1cccc(Nc2nc(-c3ccccc3O)nc3ccccc23)c1 | 9.08 µM
19 | COc1ccc2nc(SC)c(C#N)cc2c1 | inactive
20 | Cc1ccc(C)c2nc(SCC(=O)N3CCCc4ccccc43)c(C#N)cc12 | 6.12 µM
21 | COc1cc(C(=O)Nc2nc(-c3ccc(Cl)cc3)c(C)s2)ccc1OCC(=O)Nc1ccc(F)cc1 | > 40 µM (inactive)
22 | CCOC(=O)c1sc(NC(=S)NC(=O)c2ccc(OC)cc2)nc1C | 2.11 µM
23 | CCC(=O)c1cn(CC(=O)Nc2ccc(C)cc2C)c2ccccc12 | 1.36 µM
24 | Nc1c2c(nc3ccccc13)CCN(Cc1ccccc1)C2 | inactive
25 | Cc1cc(C)c2nc(SCC(=O)N(C)C3CCS(=O)(=O)C3)cc(C)c2c1 (stereo not drawn) | 6.34 µM
26 | CCCCCNC(=O)c1c[nH]c2ccc(S(=O)(=O)N3CCC4(CC3)OCCO4)cc2c1=O | inactive
27 | COc1ccc2c(/C=C/c3cc[n+](C)cc3)c[nH]c2c1 | inactive

Row | SMILES | IC50
28 | COCCN(Cc1cc2cc(C)ccc2n2nnnc12)C(=S)Nc1ccc(C)cc1 | inactive
29 | CCOC(=O)c1nnn2c1nc(Nc1cccc(C(F)(F)F)c1)c1ccccc12 | 1.86 µM
30 | COCCCn1c(C(=O)NCCC2=CCCCC2)cc2c(=O)n3cccc(C)c3nc21 | 7.78 µM
31 | COCCn1c(=NC(=O)c2ccc3c(c2)OCCO3)sc2cc(S(N)(=O)=O)ccc21 | 4.94 µM
32 | COC(=O)Cn1c(=NC(=O)c2nc3ccccc3s2)sc2cc(S(C)(=O)=O)ccc21 | 0.402 µM
33 | CCOc1ccc(NC(=O)CNC(=O)c2nn(-c3ccc(OC)c(OC)c3)c(=O)c3ccccc23)cc1 | 7.23 µM
34 | O=C(CSc1nc2c(c(C(F)(F)F)n1)CCc1ccccc1-2)NCc1ccccc1 | 4.21 µM
35 | CCN(CC)c1ccc(-c2c(C#N)c(N)nc(OC)c2C#N)cc1 | > 40 µM (inactive)
36 | CC1(Cc2ccccc2Cl)C(=O)Nc2ccc(OC(F)(F)F)cc21 (stereo not drawn) | 6.25 µM
37 | C/C(=N\NC(=O)COc1cccc(C)c1)c1ccc2ccccc2c1O | 7.63 µM
38 | N#Cc1c(N)nc2c3c(sc(=N)c2c1N)NC(=O)CC3c1ccccc1 (stereo not drawn) | > 40 µM (inactive)
39 | COc1ccc(C(C)(C)C)cc1NC(=O)C1=CC=CN2CCS(=O)(=O)N=C12 | 5.35 µM
40 | O=C(c1ccccc1)N1N=C(c2ccccc2O)CC1c1ccccc1 (stereo not drawn) | 2.32 µM
41 | Cc1nc2ccc3nc(NC(=O)c4ccc5c(c4)OCCO5)sc3c2s1 | 9.57 µM
42 | CCOc1ccc(S(=O)(=O)Nc2nc3ccccc3nc2-n2ccc(=NC(=O)c3ccccc3C)cc2)cc1 | > 40 µM (inactive)
43 | Cc1cc(-c2nnc3sc(-c4ccc(Cl)cc4Cl)nn23)n[nH]1 | > 40 µM (inactive)
44 | CCN(CC)C(=O)CSc1nc(C)cc(-c2cccs2)c1C#N | 5.91 µM
45 | Clc1ccc(-c2ccnc(Oc3cc(Cl)ccc3Cl)n2)cc1 | > 40 µM (inactive)
46 | CC1=NN(c2ccccc2)C(=O)/C1=C\C=C1\N(C)c2ccccc2C1(C)C | inactive
47 | Oc1ccccc1-c1nc(N2CCCC2)c2ccccc2n1 | 2.1 µM
48 | COc1ccc(-c2nc3c(c(=O)c4ccccc4n3C)c(=O)n2Cc2ccccc2)cc1 | 9.23 µM
49 | Cc1cccc2cc(C#N)c(SCC(=O)NCc3cccs3)nc12 | 9.79 µM
50 | Nc1nc(-c2cccs2)c(-c2cccs2)s1 | 1.43 µM
51 | CCCOc1ccc(C(=O)Nc2nc(C)c(Cc3ccc4c(c3)OCO4)s2)cc1 | inactive
52 | COC(=O)c1ccc(Cn2ccc3ccc(-c4ccc5ccn(C(=O)c6ccccc6C)c5c4)cc32)cc1 | 9.87 µM
53 | CCN1C(=O)/C(=C/C=C2/SCCN2C)SC1=S | inactive
